Results reported in patent publication US20120122848A1, “(+)-3-HYDROXYMORPHINAN DERIVATIVES AS NEUROPROTECTANTS” (GREEN CROSS CORPORATION, priority 2009, published 2012).
Structures can show the parent of a compound that is named as a salt.

Key:
[1] = test system: HT22 cells (mouse hippocampal neuron); test: Cell cytotoxicity test: protection of HT22 cells against glutamate toxicity (EC50) and cytotoxicity of the compounds (CC50), MTT; assay type: cell-based; conditions: Mus musculus, HT-22, five millimolar glutamate, 24 hrs, read-out: EC50 (neuroprotective effect against glutamate toxicity)
Experimental: (§1) HT22 cells (mouse hippocampal neuron, Salk Institute and KRIBB) were plated in a 96-well plate at a density of 3×10^3 cells/well for 16 hrs before treatment. The cells were treated with five millimolar glutamate and various concentrations of the inventive compounds and incubated for 24 hrs in a growth media (DMEM with 10% FBS and 1% penicillin streptomycin). Then, the cells were treated with 3-(4,5-dimethylthiazol-2-yl)-2,5-diphenyltetrazolium bromide (MTT, Sigma®) for 4 hrs and absorbance of each well was measured with a plate reader at a wavelength of 450 nm. [Da-Qing, et. al., Anti-oxidant and anti-inflammatory activities of macelignan in murine hippocampal cell line and primary culture of rat microglia cells, BBRC, 2005, 331, 1264-1269].
(§2) In Table 1, EC50 is neuroprotective effect against glutamate toxicity and CC50 is cytotoxicity of the compounds. The EC50 values were statistically analyzed using Prizm® (GraphPad Software Inc., San Diego, Calif., USA).

[2] = as above; assay type: cell-based, mouse; conditions: mouse, HT22 cells (mouse hippocampal neuron)
Experimental: as §1, §2

Structure (SMILES)	EC50 [1]	CC50 at 24 h [2]
Oc1cc2c(cc1F)C[C@@H]1NCC[C@]23CCCC[C@H]13 [Example 1, (+)-2-Fluoro-3-hydroxymorphinan TFA salt]	9.68 µM	
Oc1c(F)cc2c(c1Cl)[C@]13CCCC[C@@H]1[C@H](C2)NCC3 [Example 2, (+)-4-Chloro-2-fluoro-3-hydroxymorphinan TFA salt]	50 µM	
Oc1c(F)cc2c(c1Br)[C@]13CCCC[C@@H]1[C@H](C2)NCC3 [Example 3, (+)-4-Bromo-2-fluoro-3-hydroxymorphinan TFA salt]	19.8 µM	
Oc1c(Cl)cc2c(c1Cl)[C@]13CCCC[C@@H]1[C@H](C2)NCC3 [Example 4, (+)-2,4-Dichloro-3-hydroxymorphinan TFA salt]	10.9 µM	
Oc1ccc2c(c1Cl)[C@]13CCCC[C@@H]1[C@H](C2)NCC3 [Example 5, (+)-4-Chloro-3-hydroxymorphinan TFA salt]	9.33 µM	
Oc1c(Br)cc2c(c1Br)[C@]13CCCC[C@@H]1[C@H](C2)NCC3 [Example 6, (+)-2,4-Dibromo-3-hydroxymorphinan TFA salt]	9.57 µM	
Oc1ccc2c(c1Br)[C@]13CCCC[C@@H]1[C@H](C2)NCC3 [Example 7, (+)-4-Bromo-3-hydroxymorphinan TFA salt]	12.5 µM	
Oc1c(Cl)cc2c(c1Br)[C@]13CCCC[C@@H]1[C@H](C2)NCC3 [Example 8, (+)-4-Bromo-2-chloro-3-hydroxymorphinan TFA salt]	20.2 µM	
Oc1cc2c(cc1I)C[C@@H]1NCC[C@]23CCCC[C@H]13 [Example 9, (+)-3-Hydroxy-2-iodomorphinan TFA salt]	10.2 µM	
Oc1cc2c(cc1O)[C@]13CCCC[C@@H]1[C@H](C2)NCC3 [Example 10, (+)-2,3-Dihydroxymorphinan TFA salt]	12.1 µM	
COc1cc2c(cc1O)[C@]13CCCC[C@@H]1[C@H](C2)NCC3 [Example 12, (+)-3-Hydroxy-2-methoxymorphinan TFA salt]	24.4 µM	
O=Cc1cc2c(cc1O)[C@]13CCCC[C@@H]1[C@H](C2)NCC3 [Example 13, (+)-2-Formyl-3-hydroxymorphinan TFA salt]	11.6 µM	
O=C(O)c1cc2c(cc1O)[C@]13CCCC[C@@H]1[C@H](C2)NCC3 [Example 14, ((+)-3-Hydroxymorphinan)-2-carboxylic acid TFA salt]	86.3 µM	
OCc1cc2c(cc1O)[C@]13CCCC[C@@H]1[C@H](C2)NCC3 [Example 16, (+)-3-Hydroxy-2-(hydroxymethyl)morphinan TFA salt]	> 100 µM	
Oc1cc2c(cc1N1CCCCCC1)C[C@@H]1NCC[C@]23CCCC[C@H]13 [Example 17, (+)-2-(Azepan-1-yl)-3-hydroxymorphinan TFA salt]	0.579 µM	12.2 µM
CNc1cc2c(cc1O)[C@]13CCCC[C@@H]1[C@H](C2)NCC3 [Example 18, (+)-3-Hydroxy-2-(methylamino)morphinan TFA salt]	0.193 µM	59 µM
CC1CCN(c2cc3c(cc2O)[C@]24CCCC[C@@H]2[C@H](C3)NCC4)CC1 [Example 19, (+)-3-Hydroxy-2-(4-methylpiperidin-1-yl)morphinan TFA salt]	0.272 µM	8.04 µM
CC(C)(C)Nc1cc2c(cc1O)[C@]13CCCC[C@@H]1[C@H](C2)NCC3 [Example 20, (+)-2-(tert-Butylamino)-3-hydroxymorphinan TFA salt]	0.423 µM	> 100 µM
Oc1cc2c(cc1N1CCCCC1)C[C@@H]1NCC[C@]23CCCC[C@H]13 [Example 21, (+)-3-Hydroxy-2-(piperidin-1-yl)morphinan TFA salt]	0.482 µM	63.5 µM
Oc1cc2c(cc1N1CCCC1)C[C@@H]1NCC[C@]23CCCC[C@H]13 [Example 22, (+)-3-Hydroxy-2-(pyrrolidin-1-yl)morphinan TFA salt]	0.638 µM	80.5 µM
CCNc1cc2c(cc1O)[C@]13CCCC[C@@H]1[C@H](C2)NCC3 [Example 23, (+)-2-Ethylamino-3-hydroxymorphinan TFA salt]	1.1 µM	49.1 µM
CN1CCN(c2cc3c(cc2O)[C@]24CCCC[C@@H]2[C@H](C3)NCC4)CC1 [Example 24, (+)-3-Hydroxy-2-(4-methylpiperazin-1-yl)morphinan 2TFA salt]	3.1 µM	14.4 µM

Structure (SMILES)	EC50 [1]	CC50 at 24 h [2]
Oc1cc2c(cc1Nc1ccc(Cl)cc1)C[C@@H]1NCC[C@]23CCCC[C@H]13 [Example 25, (+)-2-(4-Chlorophenylamino)-3-hydroxymorphinan TFA salt]	0.061 µM	1.87 µM
Cc1cc(C)cc(Nc2cc3c(cc2O)[C@]24CCCC[C@@H]2[C@H](C3)NCC4)c1 [Example 27, (+)-2-(3,5-Dimethylphenylamino)-3-hydroxymorphinan TFA salt]	0.0273 µM	1.52 µM
Cc1ccc(Nc2cc3c(cc2O)[C@]24CCCC[C@@H]2[C@H](C3)NCC4)cc1 [Example 28, (+)-3-Hydroxy-2-(4-methylphenylamino)morphinan TFA salt]	0.0325 µM	1.84 µM
Oc1cc2c(cc1Nc1ccc(F)cc1)C[C@@H]1NCC[C@]23CCCC[C@H]13 [Example 29, (+)-2-(4-Fluorophenylamino)-3-hydroxymorphinan TFA salt]	0.0335 µM	19.9 µM
Oc1cc2c(cc1Nc1ccccc1)C[C@@H]1NCC[C@]23CCCC[C@H]13 [Example 30, (+)-3-Hydroxy-2-(phenylamino)morphinan TFA salt]	0.0358 µM	7.79 µM
COc1ccc(Nc2cc3c(cc2O)[C@]24CCCC[C@@H]2[C@H](C3)NCC4)cc1 [Example 31, (+)-3-Hydroxy-2-(4-methoxyphenylamino)morphinan TFA salt]	0.0404 µM	7.5 µM
Nc1ccc(Nc2cc3c(cc2O)[C@]24CCCC[C@@H]2[C@H](C3)NCC4)cc1 [Example 32, (+)-2-(4-Aminophenyamino)-3-hydroxymorphinan TFA salt]	0.0431 µM	14.1 µM
Oc1cc2c(cc1Nc1ccc(Br)cc1)C[C@@H]1NCC[C@]23CCCC[C@H]13 [Example 33, (+)-2-(4-Bromophenylamino)-3-hydroxymorphinan TFA salt]	0.0697 µM	1.67 µM
Oc1cc2c(cc1Nc1ccccn1)C[C@@H]1NCC[C@]23CCCC[C@H]13 [Example 34, (+)-3-Hydroxy-2-(pyridin-2-ylamino)morphinan 2TFA salt]	2.34 µM	41.5 µM
Oc1cc2c(cc1Nc1ccc(C(F)(F)F)cc1)C[C@@H]1NCC[C@]23CCCC[C@H]13 [Example 35, (+)-3-Hydroxy-2-(4-(trifluoromethyl)phenylamino)morphinan TFA salt]	2.59 µM	52.8 µM
Oc1cc2c(cc1Nc1ccc3c(c1)OCO3)C[C@@H]1NCC[C@]23CCCC[C@H]13 [Example 36, (+)-3-Hydroxy-2-((3,4-methylendioxy)phenylamino)morphinan TFA salt]	0.301 µM	84.5 µM
Oc1cc2c(cc1Nc1ccc3c(c1)OCCO3)C[C@@H]1NCC[C@]23CCCC[C@H]13 [Example 37, (+)-2((3,4-Ethylenedioxy)phenylamino)-3-hydroxymorphinan TFA salt]	0.14 µM	14.2 µM
Oc1cc2c(cc1Nc1ccccc1F)C[C@@H]1NCC[C@]23CCCC[C@H]13 [Example 38, (+)-2-(2-Fluorophenylamino)-3-hydroxymorphinan TFA salt]	0.211 µM	11.8 µM
Oc1cc2c(cc1Nc1cccc(F)c1)C[C@@H]1NCC[C@]23CCCC[C@H]13 [Example 39, (+)-2-(3-Fluorophenylamino)-3-hydroxymorphinan TFA salt]	0.145 µM	13.8 µM
COc1ccc(Nc2cc3c(cc2O)[C@]24CCCC[C@@H]2[C@H](C3)NCC4)c(OC)c1 [Example 40, (+)-2-(2,4-Dimethoxyphenylamino)-3-hydroxymorphinan TFA salt]	0.033 µM	7.2 µM
Cc1ccccc1Nc1cc2c(cc1O)[C@]13CCCC[C@@H]1[C@H](C2)NCC3 [Example 41, (+)-3-Hydroxy-2-(2-methylphenylamino)morphinan TFA salt]	0.0178 µM	6.9 µM
Oc1cc2c(cc1-c1ccc(Cl)cc1)C[C@@H]1NCC[C@]23CCCC[C@H]13 [Example 74, (+)-2-(4-Chlorophenol)-3-hydroxymorphinan TFA salt]	0.796 µM	
Oc1cc2c(cc1-c1ccccc1)C[C@@H]1NCC[C@]23CCCC[C@H]13 [Example 80, (+)-3-Hydroxy-2-phenylmorphinan TFA salt]	9.1 µM	
CCc1cc2c(cc1O)[C@]13CCCC[C@@H]1[C@H](C2)NCC3 [Example 84, (+)-2-Ethyl-3-hydroxymorphinan TFA salt]	6.71 µM	
Cc1cc2c(cc1O)[C@]13CCCC[C@@H]1[C@H](C2)NCC3 [Example 85, (+)-3-Hydroxy-2-methylmorphinan TFA salt]	8.39 µM	
CCCCOC(=O)Nc1ccccc1Nc1cc2c(cc1O)[C@]13CCCC[C@@H]1[C@H](C2)NCC3 [Example 118, (+)-2-(2-(Butoxycarbonylamino)phenylamino)-3-hydroxymorphinan TFA salt]	0.891 µM	
CCCCNC(=S)Nc1ccccc1Nc1cc2c(cc1O)[C@]13CCCC[C@@H]1[C@H](C2)NCC3 [Example 123, (+)-2-(2-(Butylthioureido)phenylamino)-3-hydroxymorphinan TFA salt]	0.459 µM	
